Patent publication US6022526A, “Use of texaphyrins in detection of melanin and melanin metabolites diagnostic of melanotic melanoma” (Pharmacyclics, Inc., priority 1997, dated 2000)

What was measured:
[1] = test system: B16F10 melanotic melanoma murine cells; assay: Confocal laser scanning (fluorescent) microscopy of lutetium texaphyrin in melanoma cells; assay type: cell-based; settings: 20 μg/ml LuT2BET, 1 to 24 h
Method: Fluorescent Microscopy of Texaphyrin in Melanoma Cells
The present example provides results from fluorescent microscopy studies using lutetium texaphyrin (LuT2BET) incorporated into melanoma cells.
B16F10 melanotic melanoma murine cells as described in Example 2 were incubated with 20 μg/ml LuT2BET for 1 to 24 h in Waymouth's medium supplemented with 15% fetal bovine serum. The adherent cells were washed thoroughly with PBS (3×) and examined using confocal laser scanning microscopy.
(§1) Melanoma Cells: B16F10 melanotic melanoma murine cells were obtained from the University of California, San Francisco Cell Culture Facility. These cells are highly pigmented and metastatic in vivo. Cells were grown in Iscove's Modified Dulbeccos' Medium (Gibco, Grand Island, N.Y.) supplemented with 10% fetal bovine serum (JRH Biosciences, Woodland, Calif.) and penicillin/streptomycin (Sigma, St. Louis, Mo.).

B16 melanoma = assay: Biodistribution of LuT2BET in B16 melanoma-bearing mice (fluorescence of tissue extracts and plasma); assay type: in vivo, C57 mice
Method: The present example provides results from a study of the biodistribution of lutetium texaphyrin in melanoma-bearing mice. The biodistribution of LuT2BET was analyzed in C57 mice bearing B16 melanoma at 3 h, 5 h, and 24 h after an intravenous administration of 10 or 20 μmol/kg.
(§2) LuT2BET: The synthesis and chemical analysis of lutetium texaphyrin (LuT2BET, texaphyrin A2 of Tables A and B where M is lutetium) was provided in, for example, U.S. Pat. No. 5,622,946 and in PCT publication W095/10307. LuT2BET was dissolved in 5% mannitol at a 2 mM concentration. LuT2BET absorbs strongly in the far-red region of the electromagnetic spectrum, having a molar extinction coefficient of 23,000 M^-1 cm^-1 in this solution at 732 nm.
as §1
Animals and Tumor Model: Inbred C57BL/6N female mice, (C57 mice) seven to eight weeks of age, were obtained from Simonsen Laboratories Inc. (Gilroy, Calif.). […] Tumor size, i.e., length (l), width (w), and height (h), was measured 3 times a week with a vernier caliper. Tumor volumes were calculated using the formula for a hemiellipsoid (Rockwell and Kallman, 1972): […]
Tissue Extraction Procedure: LuT2BET was administered via tail-vein injection at 10 or 20 μmol/kg. Tissues and plasma were analyzed at 3, 5 or 24 h post administration of the photosensitizer. […] Plasma samples (125 μL) were mixed with 10 mM TRITON X-100® and analyzed for texaphyrin content by fluorescence. […] Samples were then analyzed for lutetium texaphyrin content by fluorescence (excitation=450 nm, emission=700-800 nm). […] Texaphyrin accumulation is expressed as μg drug/g tissue (wet weight) or per mL plasma.
Statistical analysis: Values are expressed as mean±SD. […]

carcinoma SMT-F = assay: Pharmacological data with radiolabeled [^14 C]-LuT2BET in SMT-F bearing mice; assay type: in vivo; settings: 8.64 μmol/kg
Method: A dose of 8.64 μmol/kg LuT2BET produced drug uptake values of 5.1 μg/g, 4.7 μg/g, and 2.8 μg/g at 3 h, 5 h, and 24 h after injection, yielding tumor:muscle ratios of 8.45:1, 10:1 and 7:1, respectively.

[2] = Absorption of LuT2BET in 5% mannitol; assay type: physicochemical; settings: 732 nm, 2 mM in 5% mannitol
Method: as §2

[3] = cited from earlier work

Structure (SMILES) | localization at dendritic processes ([1]; listed as Lutetium texaphyrin) | localization in melanosomes ([1]; listed as Lutetium texaphyrin) | localization at dendritic processes ([1]; listed as lutetium texaphyrin) | localization in melanosomes ([1]; listed as lutetium texaphyrin) | tumor:muscle ratio (x:1) (B16 melanoma; 10 μmol/kg i.v., 5 h) | tumor localizing capacity (B16 melanoma; mouse, in vivo) | uptake into B16 melanoma compared to carcinoma SMT-F (B16 melanoma; mouse, in vivo) | tumor:muscle ratio (x:1) (carcinoma SMT-F; 3 h) | drug uptake (tumor) (carcinoma SMT-F; 3 h after injection) | tumor:muscle ratio (x:1) (carcinoma SMT-F; 5 h) | drug uptake (tumor) (carcinoma SMT-F; 5 h after injection) | tumor:muscle ratio (x:1) (carcinoma SMT-F; 24 h) | drug uptake (tumor) (carcinoma SMT-F; 24 h after injection) | molar extinction coefficient [2] | tumor specificity ([3]; compared with an ideal detecting agent) | levels in normal brain (caudate) ([3]; in vivo)
CC(=O)[O-].CC(=O)[O-].CCc1c(CC)c2cc3nc(cnc4cc(OCCOCCOCCOC)c(OCCOCCOCCOC)cc4ncc4nc(cc1[n-]2)C(CCCO)=C4C)C(C)=C3CCCO.O.[Lu+3] [LuT2BET] | collect at the dendritic processes | highly concentrated in the melanosomes of melanoma cells | collects at the dendritic processes | highly concentrated in the melanosomes of melanotic melanoma cells | 15 | good tumor localizing capacity | increased uptake | 8.45 | 5.1 µg/g | 10 | 4.7 µg/g | 7 | 2.8 µg/g | 23,000 M^-1 cm^-1 |  | 
CN1CCc2ccc(O)cc2C(c2ccccc2)C1 (stereo not shown) [BZZ, 2,3,4,5-tetrahydro-3-methyl-5-phenyl-1H-3-benzazepin-7-ol] |  |  |  |  |  |  |  |  |  |  |  |  |  |  | significantly less tumor-specific than an ideal detecting agent | levels that may be toxic
